One molecule from US20090111177A1, “Maintenance of Embryonic Stem Cells by the GSK-3 Inhibitor 6-Bromoindirubin-3'-Oxime” (THE ROCKEFELLER UNIVERSITY, priority 2003, published 2009) can be followed below.

In one assay the test system is Oct-3/4. Put plainly: Oct-3/4 immunocytochemistry in HESCs. Format: cell-based, human. As to the method:
Cell culture. Human embryonic stem cells (HESCs) lines were provided by WiCell Research Institute (H1 line)^5 and BresaGen Inc. (BGN1 and BGN2 lines). H1 cells were cultivated on irradiated mouse embryonic fibroblasts (MEFs) in medium consisting of 80% DMEM/F12 medium, 20% knockout serum replacement (KSR), 1 mM L-glutamine, 1% non-essential amino acids, 0.1 mM β-mercaptoethanol, and 4 ng/ml basic FGF (all from Invitrogen). […] Subsequently, HESCs were cultured on Matrigel (BD biosciences) in medium conditioned by MEFs, and passaged several times until colonies became free from contaminating MEFs as described before^9.
Immunofluorescence. Cells were fixed in 4% paraformaldehyde for 20 min at room temperature and incubated overnight at 4° C. with primary antibodies against Oct-4 (BD Biosciences), β-catenin (BD Biosciences), Tuj-1 (BAbCO), cytokeratin (Sigma), glial fibrillary acidic protein, GFAP, (Dako), smooth muscle actin (Research Diagnostics Inc), α-fetoprotein (α-FP, Cell Sciences) and Tromal (Developmental Studies Hybridoma Bank). For nuclear localization analysis, the fixed samples were subjected to fluorescent digital confocal imaging analysis using a Zeiss LSM 510 confocal microscope (Carl Zeiss). For mouse embryonic tissue sections, mid gestation embryos were fixed in 4% paraformaldehyde followed by paraffin embedding and tissue sectioning. After deparaffinization, tissue sections were incubated with a GFP-specific antibody (Molecular Probe) at 4° C. overnight. Antigens were localized by using goat anti-mouse IgG conjugated to Cy3 or goat anti-rabbit IgG conjugated to Cy2 (Zymed laboratories). For the quantitative image analysis, fluorescent images from triplicate samples were taken by the Discovery1 system (Universal Imaging Corporation). The fluorescent objects were selected by the threshold function and evaluated in five regions of each well by quantification of pixel intensities and the object size by using MetaMorph software (Universal Imaging Corporation).

A further assay relates to H1 cells. Briefly: Differentiation of HESCs into neurons on PA6 stromal cells. Type of assay: cell-based, human. The following applies: comparable to conditioned medium-treated cells. An excerpt: Differentiation of ES cells into neurons. The PA6 stromal cell line (RIKEN) was used for the co-culture system (Kawasaki et al., 2002, Generation of dopaminergic neurons and pigmented epithelia from primate ES cells by stromal cell-derived inducing activity. Proc Natl Acad Sci USA 99, 1580-1585). H1 cell colonies grown on Matrigel under different conditions for 7 d were harvested and cultured (100˜200 cells/clump, approximately 5 clumps/well of a 12-well plate) on PA6 stromal cells in 90% Knockout-Dulecco's modified Eagle's medium, 10% KSR, 1 mM L-glutamine, 1% non-essential amino acids, 0.1 mM β-mercaptoethanol for 3 weeks as previously described (Sato et al., 2003, Molecular signature of human embryonic stem cells and its comparison with the mouse. Dev Biol 260, 404-413). At the end of the culture period, cells were stained with a neuron-specific antibody, Tuj-1, as shown below. The number of wells containing Tuj-1 positive neurons was determined in each condition in repeated experiments.

Another assay concerns HESCs (H1). Put plainly: Embryoid body formation from HESCs. Format: cell-based, human. Here is the method:
Embryoid body (EB) formation. HESCs were harvested by using dispase (Invitrogen), plated on non-tissue culture treated dishes (approximately 10^7 cells/10 cm dish), and grown in non-conditioned medium for 7 d as described before (Sato et al., 2003, Molecular signature of human embryonic stem cells and its comparison with the mouse. Dev Biol 260, 404-413). The number of EBs was determined by counting EBs in 20 different fields at a low magnification (10×) using an Axiovert microscope (Zeiss). Experiments were repeated at least three times, and the average number as well as standard deviation were calculated. For the detection of differentiated derivatives by immunocytochemistry, EBs (day 7) were plated on collagen-coated 12-well plates to allow them to adhere, grown in DMEM containing 10% FBS to induce further differentiation for 7 d and fixed in 4% paraformaldehyde followed by immunostaining as shown below.
RT-PCR. Two μg of total RNA extracted from EBs (day 7) or mouse embryonic fibroblasts was reverse-transcribed using ThermoScript RT-PCR system (Invitrogen) according to the manufacturer's protocol. One μl of cDNA sample was PCR amplified with each gene-specific primers (shown below) using optimized PCR cycles to obtain amplified reactions in a linear range.

Another assay relates to MESCs. Put plainly: Teratoma formation from treated MESCs in syngenic mice. The conditions noted are these: MESCs grown in 1 μM, subcutaneous injection into syngenic mice. Format: in vivo, mouse. Here is the method: Teratoma formation. We grew CJ-GFP cells at a low density (500 cells/cm^2) on gelatin-coated 10 cm dishes in medium containing 6-bromoindirubin-3′-oxime 1 μM for 7 d, then passaged cells at the same density and cultured under the same condition another 5 d to further enforce differentiation of cells. […] 6-bromoindirubin-3′-oxime-treated cells (approximately 5×10^6 cells/mouse) were subcutaneously injected into the left flank of syngenic 129 background mice. After three to five weeks, the developed teratoma (approximately 20 mm in diameter) was excised, fixed in 4% paraformaldehyde and subjected to hematoxylin and eosin staining for histological examinations.

The next assay relates to Rex-1 promoter. Briefly: Rex-1 YFP reporter line CJRex-Y (imaging / FACS). Format: cell-based, mouse. The following applies: CJRex-Y cells, 5 d. As to the method:
Generation of stable mouse ES lines. CJ7 ES cells were transfected with pRex-1-Venus, pTY or pCAG-HygEGFP by using Lipofectamine 2000 (Invitrogen) followed by G418 (Invitrogen) selection at 200 μg/ml (for CJRex-Y or CJ-TY) or hygromycine (Invitrogen) selection at 600 μg/ml (for CJ-GFP). Two weeks after the drug selection, a number of single colonies were picked up, expanded and used for the further analyses.
FACS analysis of MESCs. We cultured CJRex-Y cells at a low density (500 cells/cm^2) on gelatin-coated 10 cm dishes in mouse ES cell medium alone, medium containing LIF, medium conditioned from wild type L cells or medium conditioned from Wnt3a-L cells (ATCC) for 5 days. The Wnt3a conditioned medium was prepared according to the provider's protocol. Cells were harvested, resuspended in mouse ES medium and subjected to FACS analysis using FACSVantage SE system (BD Biosciences).

Take `O=C1Nc2cc(Br)ccc2/C1=C1/Nc2ccccc2/C1=N\O` [6-bromoindirubin-3′-oxime]: in the assay on Oct-3/4 (HESCs in non-conditioned medium, FIG. 4c), the “Oct-3/4 expression at the cellular level” value is listed as “sustained Oct-3/4 expression”. The “Oct-3/4 expression by quantitative imaging analysis” value in the assay with Oct-3/4 (versus conditioned medium treatment, data not shown) is reported as “comparable level of Oct-3/4 expression”. The “neurogenesis on stromal feeders (Tuj-1)” value with H1 cells was “robust neurogenesis”. The “lineage-specific markers of EBs by RT-PCR” value in the assay on HESCs (H1) (EBs day 7, FIG. 5b) is “developed into ectoderm (NeuroD and keratin), mesoderm (T gene) and endoderm (α-fetoprotein and GATA4) derivatives”. Besides, the “differentiation phenotype of adherent EBs by immunocytochemistry” value with HESCs (H1) (EBs grown under adherent condition, FIG. 5c) is “wide variety of morphology and lineage-specific molecule expression”. For the same molecule, the EBs formation result with HESCs (H1) (H1 cells after treatment, FIG. 5a) is listed as “at a level comparable to that seen with conditioned medium-treated cells”. Further, the “teratoma formation, germ layer derivatives” value in the assay on MESCs is “generated teratomas consisting of all three germ layer-derived tissues”. Also, the “colony morphology / cell shape” value in the assay on Rex-1 promoter (FIG. 3b) is listed as “more compact than those observed in LIF-treated cells”. In addition, the “Rex-1 transcriptional (YFP reporter) activity” value in the assay on Rex-1 promoter (absence of LIF) was “strong transcriptional activity”.
